Source: patent US9282743B2, “Chemical compounds” (Syngenta Participations AG, priority 2011, dated 2016)

Legend:
Avena fatua (AVEFA) [1] = test: Example B7: pre application on weeds, AVEFA; assay type: in vivo; settings: 312 h, pre-emergence spray one day after sowing, evaluated after 13 days, read-out: Pre application on weeds, AVEFA (100=total damage to plant; 0=no damage to plant)
Description: (§1) Lolium perenne (LOLPE), Alopecurus myosuroides (ALOMY), Echinochloa crus-galli (ECHCG) and Avena fatua (AVEFA). Activity Against Weeds Seeds of a variety of test species were sown in standard soil in pots. After cultivation for one day under controlled conditions in a glasshouse (at 24/16° C., day/night; 14 hours light; 65% humidity), the plants were sprayed with an aqueous spray solution derived from the formulation of the technical active ingredient in acetone/water (50:50) solution containing 0.5% Tween 20 (polyoxyethelyene sorbitan monolaurate, CAS RN 9005-64-5). The test plants were then grown in a glasshouse under controlled conditions in a glasshouse (at 24/16° C., day/night; 14 hours light; 65% humidity) and watered twice daily. After 13 days, the test was evaluated (100=total damage to plant; 0=no damage to plant).

[2] = test system: Alopecurus myosuroides (ALOMY); test: Example B6: post application on weeds, ALOMY; assay type: in vivo; settings: 312 h, after 13 days, 100 = total damage, 0 = no damage, read-out: ALOMY damage to plant
Description: as §1, with “8 days” for “one day”

Winter wheat (TRZAW) = test: Example B8: post application on wheat, with and without safener cloquintocet-mexyl; assay type: in vivo; settings: after 13 days, 100 = total damage, 0 = no damage
Description: Application with Safener (Cloquintocet-Mexyl) Winter wheat seeds with a seed treatment of cloquintocet-mexyl applied at a rate of 0.5 g/kg seeds were sown in standard soil in pots. After cultivation for 8 days under controlled conditions in a glasshouse (at 24/16° C., day/night; 14 hours light; 65% humidity), the plants were sprayed with an aqueous spray solution derived from the formulation of the technical active ingredient in acetone/water (50:50) solution containing 0.5% Tween 20 (polyoxyethelyene sorbitan monolaurate, CAS RN 9005-64-5). The test plants were then grown in a glasshouse under controlled conditions in a glasshouse (at 24/16° C., day/night; 14 hours light; 65% humidity) and watered twice daily. After 13 days, the test was evaluated (100=total damage to plant; 0=no damage to plant).

Avena fatua (AVEFA) [3] = test: Example B6: post application on weeds, AVEFA; assay type: in vivo; settings: 312 h, after 13 days, 100 = total damage, 0 = no damage, read-out: AVEFA damage to plant
Description: as §1, with “8 days” for “one day”

[4] = test system: Echinochloa crus-galli (ECHCG); test: Example B6: post application on weeds, ECHCG; assay type: in vivo; settings: 312 h, after 13 days, 100 = total damage, 0 = no damage, read-out: ECHCG damage to plant
Description: as §1, with “8 days” for “one day”

[5] = test system: Echinochloa crus-galli (ECHCG); test: Example B7: pre application on weeds, ECHCG; assay type: in vivo; settings: 312 h, pre-emergence spray one day after sowing, evaluated after 13 days, read-out: Pre application on weeds, ECHCG (100=total damage to plant; 0=no damage to plant)
Description: as §1

Lolium perenne (LOLPE) [6] = test: Example B7: pre application on weeds, LOLPE; assay type: in vivo; settings: 312 h, pre-emergence spray one day after sowing, evaluated after 13 days, read-out: Pre application on weeds, LOLPE (100=total damage to plant; 0=no damage to plant)
Description: as §1

[7] = test system: Alopecurus myosuroides (ALOMY); test: Example B7: pre application on weeds, ALOMY; assay type: in vivo; settings: 312 h, pre-emergence spray one day after sowing, evaluated after 13 days, read-out: Pre application on weeds, ALOMY (100=total damage to plant; 0=no damage to plant)
Description: as §1

Lolium perenne (LOLPE) [8] = test: Example B6: post application on weeds, LOLPE; assay type: in vivo; settings: 312 h, after 13 days, 100 = total damage, 0 = no damage, read-out: LOLPE damage to plant
Description: as §1, with “8 days” for “one day”

[9] = 62.5 g/ha + 0.5 g/kg seeds cloquintocet-mexyl
[10] = 250 g/ha + 0.5 g/kg seeds cloquintocet-mexyl

SMILES | melting point | pest or weed control at 250 g/ha (Avena fatua (AVEFA) [1]) | pest or weed control at 250 g/ha [2] | TRZAW damage to plant (Winter wheat (TRZAW); [9]) | TRZAW damage to plant (Winter wheat (TRZAW); 62.5 g/ha, without safener) | pest or weed control at 250 g/ha (Avena fatua (AVEFA) [3]) | pest or weed control at 250 g/ha [4] | pest or weed control at 250 g/ha [5] | pest or weed control at 250 g/ha (Lolium perenne (LOLPE) [6]) | pest or weed control at 250 g/ha [7] | pest or weed control at 250 g/ha (Lolium perenne (LOLPE) [8]) | TRZAW damage to plant (Winter wheat (TRZAW); [10]) | TRZAW damage to plant (Winter wheat (TRZAW); 250 g/ha, without safener)
CON1CCN2C(=O)C(c3c(C)cc(-c4ccc(F)cc4)cc3C)C(=O)N2CC1 [Compound P2.21] | 292 to 294 °C |  |  |  |  |  |  |  |  |  |  |  | 
CCOC(=O)Oc1c(-c2cc(C)c(C)cc2C)c(=O)n2n1CCN(OC)CC2 [Compound P1.21] | 117 to 118 °C |  |  |  |  |  |  |  |  |  |  |  | 
CON1CCN2C(=O)C(c3cc(C)c(C)cc3C)C(=O)N2CC1 [Compound P2.19] | 171 to 173 °C |  |  |  |  |  |  |  |  |  |  |  | 
CCOC(=O)Oc1c(-c2c(Cl)cc(C)cc2OC)c(=O)n2n1CCN(OC)CC2 [Compound P1.20] | 138 to 139 °C |  |  |  |  |  |  |  |  |  |  |  | 
CCc1cc(C)cc(CC)c1C1C(=O)N2CCN(OC)CCN2C1=O [Compound P2.3, 8-(2,6-Diethyl-4-methyl-phenyl)-3-methoxy-tetrahydro-pyrazolo[1,2-a][1,2,5]triazepine-7,9-dione] | 240 °C (dec.) | 90% | 100% | 0 | 60 | 100% | 100% | 100% | 100% | 100% | 100% |  | 
CON1CCN2C(=O)C(c3cc(-c4ccc(Cl)cc4)ccc3C)C(=O)N2CC1 [Compound P2.7] | 248 to 250 °C |  |  |  |  |  |  |  |  |  |  |  | 
CON1CCN2C(=O)C(c3c(C)cc(-c4ccc(Cl)cc4)cc3C)C(=O)N2CC1 [Compound P2.20] | 258 to 260 °C |  |  |  |  |  |  |  |  |  |  |  | 
CON1CCN2C(=O)C(c3c(Cl)cc(C)cc3Br)C(=O)N2CC1 [Compound P2.10] |  | 60% | 80% |  |  | 70% | 80% | 100% | 100% | 100% | 90% | 20 | 70
CCOC(=O)Oc1c(-c2c(C)cc(C)cc2C)c(=O)n2n1CCN(OC)CC2 [Compound P1.2, Carbonic acid ethyl ester 3-methoxy-9-oxo-8-(2,4,6-trimethyl-phenyl)-2,3,4,5-tetrahydro-1H,9H-pyrazolo[1,2-a][1,2,5]triazepin-7-yl ester] |  | 80% | 50% |  |  | 100% | 100% | 40% | 90% | 80% | 100% | 30 | 80
CON1CCn2c(OC(=O)C(C)(C)C)c(-c3c(C)cc(C)cc3C)c(=O)n2CC1 [Compound P1.1, 2,2-Dimethyl-propionic acid 3-methoxy-9-oxo-8-(2,4,6-trimethyl-phenyl)-2,3,4,5-tetrahydro-1H,9H-pyrazolo[1,2-a][1,2,5]triazepin-7-yl ester] |  | 50% | 100% |  |  | 100% | 100% | 20% | 100% | 90% | 100% | 50 | 70
C#Cc1cc(C)cc(C)c1-c1c(OC(=O)OCC)n2n(c1=O)CCN(OC)CC2 [Compound P1.5] |  | 90% | 100% | 20 | 80 | 100% | 100% | 20% | 30% | 40% | 90% |  | 
